Assay results from ChEMBL document CHEMBL1138495, “Inhibition of subgenomic hepatitis C virus RNA replication by acridone derivatives: identification of an NS3 helicase inhibitor” (J Med Chem, 2009).
In brackets after ≈: the same amount, converted by molar mass. Activity calls are given as the source filed them. The rule behind the calls is not given here.

Columns and labels:
[1] = tested on: Hepacivirus hominis; test: Inhibition of HCV recombinant NS5B RNA polymerase expressed in Escherichia coli up to 100 uM by liquid scintillation counter
[2] = tested on: Hepatitis C virus; test: Antiviral activity against HCV infected in human HuH5.2 assessed as inhibition of viral RNA synthesis after 4 days by Steady-Glo-luciferase assay; format: functional, organism-based, Hepacivirus hominis; details: Huh-5-2, 96 h
[3] = Cytostatic activity against human HuH5.2 after 3 days by MTS/PMS assay; format: ADME, Huh-5-2; details: HuH5.2 cells
[4] = Inhibition of ATPase activity of HCV […] expressed in Escherichia coli; parameters: species or system Hepacivirus hominis
[5] = tested on: Vero; test: Cytostatic activity against african green monkey Vero cells; format: ADME, cell-based; details: chlorocebus sabaeus
[6] = tested on: Vero; test: Cytostatic activity against african green monkey Vero cells in presence of guanosine; format: ADME, cell-based; details: chlorocebus sabaeus
[7] = tested on: Bovine viral diarrhea virus 1; test: Antiviral activity against Bovine viral diarrhea virus infected in MDBK cells assessed as inhibition of virus-induced cytopathic effect after 4 to 5 days by microscopy; format: functional, organism-based; details: Bovine viral diarrhea virus isolates and strains
[8] = Cytotoxicity against MDBK cells after 3 days by MTS/PMS method; format: cell-based, Bos taurus; details: cattle
[9] = target: DNA topoisomerase 2-alpha (Homo sapiens) (UniProt P11388); test: Inhibition of human topoisomerase 2
Chain of DNA topoisomerase 2-alpha (Homo sapiens) (P11388 whole entry): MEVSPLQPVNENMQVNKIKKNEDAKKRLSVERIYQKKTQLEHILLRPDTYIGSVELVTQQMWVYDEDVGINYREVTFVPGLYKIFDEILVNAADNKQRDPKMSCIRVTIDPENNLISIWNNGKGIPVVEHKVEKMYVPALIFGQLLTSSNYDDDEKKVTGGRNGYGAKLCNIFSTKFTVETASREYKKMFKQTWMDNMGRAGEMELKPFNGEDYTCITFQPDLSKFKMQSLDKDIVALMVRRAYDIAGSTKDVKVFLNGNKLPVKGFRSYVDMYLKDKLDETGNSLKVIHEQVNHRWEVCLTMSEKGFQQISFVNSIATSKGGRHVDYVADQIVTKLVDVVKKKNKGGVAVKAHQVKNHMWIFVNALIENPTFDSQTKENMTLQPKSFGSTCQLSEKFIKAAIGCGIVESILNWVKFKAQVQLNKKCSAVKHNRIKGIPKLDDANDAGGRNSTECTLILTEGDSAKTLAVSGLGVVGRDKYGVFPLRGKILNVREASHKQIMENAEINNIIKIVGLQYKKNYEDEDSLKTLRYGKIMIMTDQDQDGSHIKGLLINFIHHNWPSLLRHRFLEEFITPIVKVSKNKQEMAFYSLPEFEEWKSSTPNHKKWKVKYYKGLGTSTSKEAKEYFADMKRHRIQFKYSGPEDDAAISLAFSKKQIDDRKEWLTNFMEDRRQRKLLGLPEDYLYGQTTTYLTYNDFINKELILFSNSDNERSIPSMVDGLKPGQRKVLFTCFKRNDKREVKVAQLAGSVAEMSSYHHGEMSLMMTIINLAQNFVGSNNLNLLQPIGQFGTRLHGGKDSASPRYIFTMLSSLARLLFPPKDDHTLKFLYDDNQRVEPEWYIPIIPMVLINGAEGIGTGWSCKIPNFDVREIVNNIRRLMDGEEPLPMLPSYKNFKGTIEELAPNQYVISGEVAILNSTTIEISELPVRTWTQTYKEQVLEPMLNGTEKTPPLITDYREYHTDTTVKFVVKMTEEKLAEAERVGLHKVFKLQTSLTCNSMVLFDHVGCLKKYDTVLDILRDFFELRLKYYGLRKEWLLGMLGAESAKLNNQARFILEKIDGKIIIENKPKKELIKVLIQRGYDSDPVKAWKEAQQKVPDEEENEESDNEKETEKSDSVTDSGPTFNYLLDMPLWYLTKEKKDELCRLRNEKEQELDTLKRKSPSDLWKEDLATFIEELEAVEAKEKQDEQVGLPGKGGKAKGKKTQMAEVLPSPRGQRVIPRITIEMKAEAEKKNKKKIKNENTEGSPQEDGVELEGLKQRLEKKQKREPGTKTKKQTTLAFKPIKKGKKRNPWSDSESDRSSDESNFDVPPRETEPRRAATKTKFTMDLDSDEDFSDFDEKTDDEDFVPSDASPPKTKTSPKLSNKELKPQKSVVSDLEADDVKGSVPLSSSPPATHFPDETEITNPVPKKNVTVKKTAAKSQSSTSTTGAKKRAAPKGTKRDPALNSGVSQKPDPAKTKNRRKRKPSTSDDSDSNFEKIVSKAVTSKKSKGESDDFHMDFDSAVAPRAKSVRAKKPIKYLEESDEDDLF

Compound	Activity [1]	EC50 [2] [µg/mL]	CC50 at 72 h [3] [µg/mL]	IC50 [4] [µM]	Activity [5]	Activity [6]	EC50 [7] [µg/mL]	CC50 at 72 h [8] [µg/mL]	Activity [9]
CCn1c2cc(Cl)c(N)cc2c(=O)c2c(O)cc(O)cc21	inactive	5 (≈ 16.4 µM)	> 50	> 1000					
Cn1ccc(=O)c2cc(N)c(N3CCN(c4ccccn4)CC3)cc21	inactive	11 (≈ 32.8 µM)	> 33	> 1000					
COc1ccc2c(=O)c3cc(N)c(N4CCN(c5ccccn5)CC4)cc3n(C)c2c1	inactive	0.8 (≈ 1.93 µM)	11 (≈ 26.5 µM)	> 1000					
COc1cc(OC)c2c(=O)c3ccc(N4CCN(c5ccccn5)CC4)cc3n(C)c2c1	inactive	2.3 (≈ 5.34 µM)	> 50	> 1000	Toxic	Non-toxic			
COc1cc(OC)c2c(=O)cc(-c3ccc(N4CCN(c5ccccn5)CC4)c(N)c3)n(C)c2c1	inactive	> 50	> 50	> 1000					
COc1cccc2c1c(=O)c1cc(N)c(N3CCN(c4ccccn4)CC3)cc1n2C	inactive	12.5 (≈ 30.1 µM)	28.5 (≈ 68.6 µM)	> 1000					
COc1cc(OC)c2c(=O)c3cc(N)c(N4CCN(c5ccncc5)CC4)cc3n(C)c2c1	inactive	5.5 (≈ 12.3 µM)	> 50	> 1000	Toxic	Non-toxic			
COc1cc(OC)c2c(=O)c3cc(N)c(N4CCN(c5ccccn5)CC4)cc3n(C)c2c1	inactive	1.6 (≈ 3.59 µM)	50 (≈ 112 µM)	> 1000	Toxic	Non-toxic	> 100	> 100	inactive
Cn1c2cc(N3CCN(c4nc5ccccc5o4)CC3)c(N)cc2c(=O)c2c(O)cc(O)cc21	inactive	17 (≈ 37.2 µM)	> 50	> 1000					
COc1cc(O)c2c(=O)c3cc(N)c(N4CCN(c5ccccn5)CC4)cc3n(C)c2c1	inactive	13 (≈ 30.1 µM)	> 50	> 1000			4 (≈ 9.27 µM)	> 100	
COc1cc(O)c2c(=O)c3cc(N)c(Cl)cc3[nH]c2c1	inactive	8 (≈ 27.5 µM)	> 50	> 1000					
COc1cc(OC)c2c(=O)c3cc(N)c(OC)cc3n(C)c2c1	inactive	9 (≈ 28.6 µM)	> 50	> 1000					
COc1cc(OCC(=O)O)c2c(=O)c3cc(N)c(N4CCN(c5ccccn5)CC4)cc3n(C)c2c1	inactive	35 (≈ 71.5 µM)	> 50	> 1000					
COc1cc2c(cc1N)c(=O)c1c(O)cc(O)cc1n2C	inactive	5 (≈ 17.5 µM)	26 (≈ 90.8 µM)	> 1000					
COc1cc(OC)c2c(=O)c3cc(N)c(N4CCN(c5ccccc5)CC4)cc3n(C)c2c1	inactive	9 (≈ 20.2 µM)	34 (≈ 76.5 µM)	> 1000					
COc1cc(OC)c2c(=O)c3cc(N)c(N4CCN(c5ncccn5)CC4)cc3n(C)c2c1	inactive	> 50	> 50	> 1000					
COc1cc(OC)c2c(=O)c3cc(N)c(N4CCN(c5ccccc5OC)CC4)cc3n(C)c2c1	inactive	16 (≈ 33.7 µM)	> 50	> 1000					
COc1cc(OC)c2c(=O)c3cc(N)c(N4CCN(c5nc6ccccc6o5)CC4)cc3n(C)c2c1	inactive	27 (≈ 55.6 µM)	> 50	> 1000					
Cn1c2ccccc2c(=O)c2cc(N)c(N3CCN(c4ccccn4)CC3)cc21	inactive	4 (≈ 10.4 µM)	29 (≈ 75.2 µM)	> 1000					
Cn1c2cc(N3CCN(c4ccccn4)CC3)c(N)cc2c(=O)c2c(O)cc(O)cc21	inactive	1.7 (≈ 4.07 µM)	21 (≈ 50.3 µM)	> 1000			0.5 (≈ 1.2 µM)	> 100	inactive
COc1ccc(C(=O)c2ccc(N3CCN(c4ccccn4)CC3)c(N)c2)c(OC)c1	inactive	6.6 (≈ 15.8 µM)	15 (≈ 35.8 µM)	> 1000					
COc1cc(OC)c2c(=O)c3cc(N(C)C)c(N4CCN(c5ccccn5)CC4)cc3n(C)c2c1	inactive	1 (≈ 2.11 µM)	3 (≈ 6.33 µM)	> 1000					
COc1cc2c(=O)c3cc(N)c(N4CCN(c5ccccn5)CC4)cc3n(C)c2cc1OC	inactive	6 (≈ 13.5 µM)	14 (≈ 31.4 µM)	> 1000					
COc1ccc(C(=O)c2ccc(N3CCN(c4ccccn4)CC3)c(N)c2)c(O)c1	inactive	3.7 (≈ 9.15 µM)	> 50	> 1000					
